Results reported in patent US11065211B2, “Isoxylitones mediated neurogenesis” (priority 2018, dated 2021).

Legend:
Format in all cases: cell-based, rat
Cocul-CTX cells [1] = assay: AlamarBlue proliferation assay; conditions: 24 h, FIG. 4
Description: (§1) Wistar rats (150-200 gm) were used to isolate bone marrow (BM). Rats were sacrificed and their femurs were removed aseptically. The bone marrow (BM) was flushed from the shaft of the bone by clipping of the epiphysial ends and flushing using a 26-gauge needle with ˜2 ml of Dulbecco's Modified Eagle's medium (DMEM) supplemented with 5% FBS, 1% penicillin/streptomycin solution, 1% sodium pyruvate and L-glutamine. The BM was then centrifuged for 8 minutes at 1000 rpm. Following centrifugation, cell pellet was collected and 1 ml of fresh DMEM was added. The cell viability was checked using trypan blue exclusion method. The cells were then divided into three equal parts. One part was co-cultured with freshly isolated hippocampal cells in T75 cm^2 flask, 2nd with freshly isolated cortical cells and the third portion (BM cells only) was cultured as a control. The cell density for co-cultures was set at 140,000 cells/ml for each type of culture. The cultured flasks were then incubated at 37° C. and 5% CO2. After 4-5 days, floating hematopoietic cells and dead debris/tissues of hippocampus and cortex were removed and bone marrow stromal cells (BMSCs) were recovered due to their tendency to adhere. Medium was replaced after every 3 to 4 days till cells became 80-90% confluent.
(§2) AlamarBlue (AB), a water-soluble dye having resazurin salt was used to evaluate the effect of isoxylitones on the proliferation of the cultured cells. AB measures mitochondrial reductase activity of live cells. The resazurin has ability to enter the cytosol of viable cell and converted to the reduced fluorescent form resorufin by mitochondrial enzyme activity by accepting electrons from NADPH, FADH, FMNH, NADH as well as from the cytochromes. […] The amount of fluorescence produced is proportional to the number of living cells (Al-Nasiry, Geusens, Hanssens, Luyten, Pijnenborg, 2007). […] After incubation, the fluorescence intensity in each well was recorded at an excitation wavelength of 570 nm and an emission wavelength of 600 nm. The rate of cell proliferation was expressed as the relative fluorescence intensity. […] The blank media fluorescence measurement was subtracted from fluorescence measurements of cells from the same run.
(§3) Formula used to calculate the percentage reduction of AB using absorbance readings:
(§4) [formula] Where: O1=molar extinction coefficient (E) of oxidized alamarBlue® (Blue) at 570 nm O2=E of oxidized alamarBlue® at 600 nm A1=absorbance of test wells at 570 nm A2=absorbance of test wells at 600 nm P1=absorbance of positive growth control well (cells plus alamarBlue® but no test agent) at 570 nm P2=absorbance of positive growth control well (cells plus alamarBlue® but no test agent at 600 nm

Cocul-HP cells [2] = assay: AlamarBlue proliferation assay; conditions: 24 h, FIG. 4
Description: as §1, §2, §3, §4

cortical cells = assay: AlamarBlue proliferation assay; conditions: 24 h treatment, vs control, FIG. 3
From the text: (§5) AlamarBlue (AB), a water-soluble dye having resazurin salt was used to evaluate the effect of isoxylitones on the proliferation of the cultured cells. AB measures mitochondrial reductase activity of live cells. The resazurin has ability to enter the cytosol of viable cell and converted to the reduced fluorescent form resorufin by mitochondrial enzyme activity by accepting electrons from NADPH, FADH, FMNH, NADH as well as from the cytochromes. The redox reaction is accompanied by a change in color of the culture medium from blue to fluorescent red (Al-Nasiry, Geusens, Hanssens, Luyten, Pijnenborg, 2007). The amount of fluorescence produced is proportional to the number of living cells (Al-Nasiry, Geusens, Hanssens, Luyten, Pijnenborg, 2007). The cultured hippocampal, cortical and co-cultures were plated in 96-well plates (10,000 cells/well) and incubated for 24 hrs at 37° C. and 5% CO2. […] After incubation, the fluorescence intensity in each well was recorded at an excitation wavelength of 570 nm and an emission wavelength of 600 nm. The rate of cell proliferation was expressed as the relative fluorescence intensity. […] The blank media fluorescence measurement was subtracted from fluorescence measurements of cells from the same run.
(§6) Formula used to calculate the percentage reduction of AB using absorbance readings: […]

hippocampal cells = assay: AlamarBlue proliferation assay; conditions: 24 h treatment, vs control, FIG. 3
From the text: as §5, §6

Cocul-CTX cells [3] = assay: BrdU proliferation ELISA assay; conditions: 150 μg/ml, 24 h, FIG. 6
Description: as §1, with “confluent. […]” for “confluent.”

Cocul-HP cells [4] = assay: BrdU proliferation ELISA assay; conditions: 24 h, increase reported with 100 and 150 μg/mL, FIG. 6
Description: as §1, with “confluent. […]” for “confluent.”

Question: Which results are given for CC(=O)C=C1C=C(C)CC(C)(C)C1 (mixture of isomers) [isoxylitones]?
Answer: highest proliferative dose (Cocul-CTX cells [1]): 150 µg/mL; growth proliferation (Alamar blue) (Cocul-CTX cells [1]; various doses): dose dependent growth proliferative effect; highest proliferative dose (Cocul-HP cells [2]): 150 µg/mL; growth proliferation (Alamar blue) (Cocul-HP cells [2]; various doses): dose dependent growth proliferative effect; proliferation (Alamar blue) (cortical cells): growth supportive and proliferative effect; proliferation (Alamar blue) (hippocampal cells): growth supportive and proliferative effect; BrdU positive cells (Cocul-CTX cells [3]): increased BrdU positive cells; BrdU positive cells (Cocul-HP cells [4]): significantly elevated the BrdU positive cells
